The target in assay [1] is T1, HMG-CoA reductase (rat liver microsomes) (Rattus norvegicus, UniProt P51639).
T1 construct: taking out liver of male rat, washing with KESD buffer solution; from tissue; host or cells: liver of male rat (microsomal fraction, glycerol/37 °C treatment, 35-50% ammonium sulfate fraction)
T1 sequence (P51639 1-887): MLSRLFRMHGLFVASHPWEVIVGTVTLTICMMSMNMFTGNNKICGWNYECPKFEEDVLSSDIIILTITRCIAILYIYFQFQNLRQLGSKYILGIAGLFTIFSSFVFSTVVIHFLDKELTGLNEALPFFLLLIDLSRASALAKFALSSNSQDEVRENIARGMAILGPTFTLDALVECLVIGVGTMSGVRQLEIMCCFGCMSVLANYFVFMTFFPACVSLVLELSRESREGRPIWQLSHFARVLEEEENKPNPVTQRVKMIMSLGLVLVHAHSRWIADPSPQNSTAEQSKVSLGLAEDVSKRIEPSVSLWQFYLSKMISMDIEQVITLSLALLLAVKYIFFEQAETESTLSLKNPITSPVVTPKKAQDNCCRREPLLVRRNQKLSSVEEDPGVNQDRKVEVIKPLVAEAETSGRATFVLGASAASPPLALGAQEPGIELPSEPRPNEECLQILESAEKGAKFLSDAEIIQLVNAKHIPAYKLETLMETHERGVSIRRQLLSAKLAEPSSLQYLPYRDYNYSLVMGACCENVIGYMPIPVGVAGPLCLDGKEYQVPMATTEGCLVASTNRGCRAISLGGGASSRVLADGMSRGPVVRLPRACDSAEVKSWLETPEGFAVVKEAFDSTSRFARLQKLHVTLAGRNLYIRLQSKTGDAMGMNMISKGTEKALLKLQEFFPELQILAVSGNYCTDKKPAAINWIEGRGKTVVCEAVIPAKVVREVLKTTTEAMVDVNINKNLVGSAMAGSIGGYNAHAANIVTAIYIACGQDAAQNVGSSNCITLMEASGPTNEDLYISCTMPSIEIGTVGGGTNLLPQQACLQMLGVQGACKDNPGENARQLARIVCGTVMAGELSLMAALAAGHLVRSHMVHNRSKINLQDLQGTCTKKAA
Briefly: Test of activity of inhibiting HMG-CoA reductase (rate of decline of OD340). Type of assay: biochemical. As to conditions: for Slope (rate of decline of OD340): blank control slope 16.0. How it is done: Rat liver microsomes (HMG-CoA reductase), could be commercially available or prepared by the following preparation method: taking out liver of male rat, washing with KESD buffer solution, centrifuging under 1200 g for 15 minutes, collecting supernatant, then centrifuging under 105,000 g twice, 90 minutes for each time, and collecting centrifugation deposit. The centrifugation deposit was added with 8.3% of glycerol, heated with 37° C. bath for 1 hour. The crude product of rat liver microsomes was purified with saturated ammonium sulfate, and 35-50% of purified fraction was collected. The purified fraction obtained could be stored in −80° C. refrigerator.
Compound of Formula II was dissolved in 75% ethanol solution, with initial concentration of 8.0 mg/mL, and diluted in gradient manner, to reach 4.0 mg/mL, 2.0 mg/mL, 1.0 mg/mL; lovastatin was used as positive control, dissolved with 75% ethanol solution to reach concentration of 2.0 mg/mL; in the test system, total volume was 250 μL, concentrations of ingredients were separately: potassium chloride 200 mM, potassium dihydrogen phosphate 160 mM, ethylenediamine tetraacetic acid 4 mM, dithiothreitol 10 mM, […] and 3-hydroxy-3-methylglutary coenzyme A as two substrates separately had concentrations of: 200 μM and 50 μM, pH6.8, 30 μL of enzyme was added, 4 test groups were separately added with 10 μL of new compound solutions with different concentrations, the positive control group was added with 10 μL of lovastatin solution, the blank control group was added with 10 μL of 75% ethanol solution, and dynamitic changes of OD340 were detected with Versamax ELISA at 37° C. condition. The rate of decline of OD340 (expressed in slope value) as detected within 5 minutes was used to evaluate the activity of HMG-CoA reductase, and then to evaluate the activity of enzyme inhibitor and the results were shown in Table 2.

For assay [2], the system named is human colon cancer cell strain HCT116. The experiment in a line: MTT test of inhibiting cancer cells, HCT116. Type of assay: cell-based. As to conditions: 72 hours, FIG. 1, concentration-effect relationship. How it is done:
(§1) Cancer cells of exponential growth phase were inoculated on 96-well plate, 2×10^4 cells/well, added with drug until final drug concentrations were: 500, 250, 125, 62.5, 31.25, 15.625 and 7.8125 μg/mL, cultured at 37° C. in 5% CO2 cell culture incubator for 72 hours, then added with MTT, 10 μL/well, incubated in dark at 37° C. for 4 hours, culture medium was removed, 150 μL of DMSO or acidified isopropanol was added, vibrated for 5 minutes, and then OD values were measured under wavelength of 570 nm. This was repeated for 3 times, and a blank control was set. These cell strains used the same culture medium, i.e., RPMI1640 culture medium containing 10% fetal bovine serum and 1% double antibody (penicillin and steptomycin).
(§2) Calculation Formula: Cell survival rate=(OD value of test group/OD value of control group)×100%.
Background: Formazan colour is commonly taken as a measure of viable cells.

The next assay concerns HepG2 cells. Briefly: MTT test of inhibiting cancer cells, HepG2. Type of assay: cell-based. As to conditions: Homo sapiens, 72 hours, FIG. 3, read-out: IC50 value, growth of human hepatoma cell line. The protocol:
as §1, §2

Assay [3] concerns mice hepatoma cell line H22. Briefly: MTT test of inhibiting cancer cells, H22. The note with it: Mus musculus, 72 hours, FIG. 2, read-out: IC50 value, growth of H22. The format is cell-based. How it is done:
as §1, §2

Where [4] appears, read: final concentration in system 40 μg/mL.
Setting [5] is: final concentration in system 80 μg/mL.
[6] abbreviates: final concentration in system 160 μg/mL.
Setting [7] is: final concentration in system 320 μg/mL.

Broadly, the IC50 is the concentration at which inhibition is half-maximal.

SMILES strings stand for the structures.

Regarding `C[C@@H](C(O)C1OC2C[C@H]3C4=CC=C5CC(O)CC[C@]5(C)[C@H]4CC[C@]3(C)[C@H]2[C@@]1(C)O)C(C)(C)O` (stereo partly drawn) [Compound of Formula II, 16,22-epoxy-ergosta-5,7-dien-3,20,23,25-tetraol], the Inhibition rate in assay [1] (setting [4]) amounted to 14.4%; in assay [1] (setting [5]), 29.4%; in assay [1] (setting [6]) it was 45.6%; in assay [1] (setting [7]), 53.1%. Besides, the “Slope (rate of decline of OD340)” value in assay [1] (setting [4]) is given as 13.7; in assay [1] (setting [5]) it was 11.3; in assay [1] (setting [6]) it was 8.7; in assay [1] (setting [7]) it was 7.5. Moreover, the IC50 was roughly 543 µM in assay [1] (read-out: IC50 value, inhibition of activity of HMG-CoA reductase (converted)); roughly 200 µg/mL in the assay on HepG2 cells; roughly 50 µg/mL in assay [3]. Besides, the “inhibition effect on growth of HCT116 (in words)” value in assay [2] is listed as “inhibition effect”.
